Patent US8288387B2, “Napthalimide-benzimidazole hybrids as potential antitumor agents and process for the preparation thereof” (Council of Scientific & Industrial Research, priority 2008, dated 2012)

Key:
[1] = test system: OVCAR-4; experiment: NCI in vitro anticancer SRB assay, OVCAR-4; assay type: cell-based, human; details: Homo sapiens, OVCAR-4, Ovarian Cancer
Procedure: (§1) Anticancer activity: In vitro biological activity studies were carried out at the National Cancer Institute (USA).
(§2) The compounds 5a-b evaluated for in vitro anticancer activity against sixty human tumour cells derived from nine cancer types (leukemia, non-small-cell lung, colon, CNS, melanoma, ovarian, prostate, and breast cancer) as shown in Table 1. For each compound, dose response curves for each cell line were measured at a minimum of five concentrations at 10 fold dilutions. A protocol of 48 h continuous drug exposure was used and a sulforhodamine B (SRB) protein assay was used to estimate cell viability or growth. The concentration causing 50% cell growth inhibition (GI50), total cell growth inhibition (TGI 0% growth) and 50% cell death (LC50, −50% growth) compared with the control was calculated. […] The MG MID of log TGI and log LC50 have shown similar pattern to the log GI50 MG MID. The other compounds 9a-c evaluated for in vitro one dose anticancer activity against nine human tumor cell panels containing sixty cell lines in percent growth inhibition values are listed in Table 3.

[2] = test system: MALME-3M; experiment: NCI in vitro anticancer SRB assay, MALME-3M; assay type: cell-based, human; details: Homo sapiens, Melanoma
Procedure: as §1, §2

[3] = test system: HCT-116; experiment: NCI in vitro anticancer SRB assay, HCT-116; assay type: cell-based, human; details: Homo sapiens, HCT-116, Colon Cancer
Procedure: as §1, §2

[4] = test system: SK-MEL-28; experiment: NCI in vitro anticancer SRB assay, SK-MEL-28; assay type: cell-based, human; details: Homo sapiens, SK-MEL-28, Melanoma
Procedure: as §1, §2

[5] = test system: SW-620; experiment: NCI in vitro anticancer SRB assay, SW-620; assay type: cell-based, human; details: Homo sapiens, SW-620, Colon Cancer
Procedure: as §1, §2

[6] = test system: U251; experiment: NCI in vitro anticancer SRB assay, U251; assay type: cell-based, human; details: Homo sapiens, U-251, U251, CNS Cancer
Procedure: as §1, §2

[7] = test system: MDA-MB-231/ATCC; experiment: NCI in vitro anticancer SRB assay, MDA-MB-231/ATCC; assay type: cell-based, human; details: Homo sapiens, Breast Cancer
Procedure: as §1, §2

[8] = test system: RXF 393; experiment: NCI in vitro anticancer SRB assay, RXF 393; assay type: cell-based, human; details: Homo sapiens; RXF 393, Renal Cancer; repeat test values
Procedure: as §1, §2

[9] = test system: SK-MEL-5; experiment: NCI in vitro anticancer SRB assay, SK-MEL-5; assay type: cell-based, human; details: Homo sapiens, SK-MEL-5, Melanoma
Procedure: as §1, §2

[10] = test system: DU 145; experiment: NCI in vitro anticancer SRB assay, DU 145; assay type: cell-based, human; details: Homo sapiens, DU 145, Prostate Cancer
Procedure: as §1, §2

[11] = test system: EKVX; experiment: NCI in vitro anticancer SRB assay, EKVX; assay type: cell-based, human; details: Homo sapiens, Non-Small Cell Lung Cancer
Procedure: as §1, §2

[12] = test system: K-562; experiment: NCI in vitro anticancer SRB assay, K-562; assay type: cell-based, human; details: Homo sapiens, K562, K-562, Leukemia
Procedure: as §1, §2

[13] = test system: NCI-H322M; experiment: NCI in vitro anticancer SRB assay, NCI-H322M; assay type: cell-based, human; details: Homo sapiens, Non-Small Cell Lung Cancer
Procedure: as §1, §2

[14] = test system: T-47D; experiment: NCI in vitro anticancer SRB assay, T-47D; assay type: cell-based, human; details: Homo sapiens, T47D, Breast Cancer
Procedure: as §1, §2

[15] = test system: HS 578T; experiment: NCI in vitro anticancer SRB assay, HS 578T; assay type: cell-based, human; details: Homo sapiens, Breast Cancer
Procedure: as §1, §2

[16] = test system: BT-549; experiment: NCI in vitro anticancer SRB assay, BT-549; assay type: cell-based, human; details: Homo sapiens; BT-549, Breast Cancer; repeat test values
Procedure: as §1, §2

[17] = test system: SF-539; experiment: NCI in vitro anticancer SRB assay, SF-539; assay type: cell-based, human; details: Homo sapiens, SF-539, CNS Cancer
Procedure: as §1, §2

[18] = test system: SNB-75; experiment: NCI in vitro anticancer SRB assay, SNB-75; assay type: cell-based; details: Homo sapiens, SNB-75, CNS Cancer
Procedure: as §1, §2

[19] = test system: 786-0; experiment: NCI in vitro anticancer SRB assay, 786-0; assay type: cell-based, human; details: Homo sapiens, 786-0, Renal Cancer
Procedure: as §1, §2

[20] = test system: sixty human tumour cells; experiment: In vitro cytotoxicity, mean graph midpoints over all cell lines; assay type: cell-based; details: mean graph midpoint
Procedure: as §1, §2

[21] = test system: MCF7; experiment: NCI in vitro anticancer SRB assay, MCF7; assay type: cell-based, human; details: Homo sapiens, MCF7, Breast Cancer
Procedure: as §1, §2

[22] = test system: KM12; experiment: NCI in vitro anticancer SRB assay, KM12; assay type: cell-based, human; details: Homo sapiens, KM12, Colon Cancer
Procedure: as §1, §2

Work on `CN1CCN(c2ccc3nc(-c4ccc(OCCCN5C(=O)c6cccc7cccc(c67)C5=O)cc4)[nH]c3c2)CC1` [Compound 5a, 2-{3-[4-(6-[4-methylpiperazino]2-benzimidazolyl)phenoxy]propyl}napthalimide] yielded a GI50 ([1]; 48 h drug exposure, SRB) of 1.58 µM, a GI50 ([1]; repeat test values) of 1.85 µM and a GI50 ([2]; 48 h drug exposure, SRB) of 7.66 µM. It also gave a GI50 ([2]; repeat test values) of 2.56 µM, a GI50 ([3]; 48 h drug exposure, SRB) of 1.76 µM and a GI50 ([3]; repeat test values) of 1.64 µM. The GI50 ([4]; 48 h drug exposure, SRB) was 1.48 µM, the GI50 ([4]; repeat test values) was 1.8 µM and the GI50 ([5]; 48 h drug exposure, SRB) was 1.7 µM. It also gave a GI50 ([5]; repeat test values) of 1.83 µM, a GI50 ([6]; 48 h drug exposure, SRB) of 1.78 µM and a GI50 ([6]; repeat test values) of 1.97 µM. The GI50 ([7]; 48 h drug exposure, SRB) was 1.51 µM, the GI50 ([7]; repeat test values) was 1.41 µM and the GI50 [8] was 10 µM. It also gave a GI50 ([9]; 48 h drug exposure, SRB) of 1.69 µM, a GI50 ([9]; repeat test values) of 1.6 µM and a GI50 ([10]; 48 h drug exposure, SRB) of 1.45 µM. The GI50 ([10]; repeat test values) was 1.74 µM, the GI50 ([11]; 48 h drug exposure, SRB) was 1.37 µM and the GI50 ([11]; repeat test values) was 1.83 µM. For the same compound, the GI50 ([12]; 48 h drug exposure, SRB) was 0.49 µM, the GI50 ([12]; repeat test values) was 1.58 µM and the GI50 ([13]; 48 h drug exposure, SRB) was 1.81 µM. For the same compound, the GI50 ([13]; repeat test values) was 1.64 µM, the GI50 ([14]; 48 h drug exposure, SRB) was 1.54 µM and the GI50 ([14]; repeat test values) was 2.66 µM. It also gave a GI50 ([15]; 48 h drug exposure, SRB) of 2.1 µM, a GI50 ([15]; repeat test values) of 2.11 µM and a GI50 [16] of 4.8 µM. The GI50 ([17]; 48 h drug exposure, SRB) was 1.64 µM, the GI50 ([17]; repeat test values) was 1.86 µM and the GI50 ([18]; 48 h drug exposure, SRB) was 0.02 µM. For the same compound, the GI50 ([18]; repeat test values) was 1.77 µM, the GI50 ([19]; 48 h drug exposure, SRB) was 1.53 µM and the GI50 ([19]; repeat test values) was 1.74 µM. For the same compound, the “Log LC50 MG MID” value ([20]; log10 of drug concentration causing 50% cell death (−50%)) was −4.20, the “Log TGI MG MID” value ([20]; log10 of drug concentration causing total cell growth inhibition (0% growth)) was −4.80 and the “Log GI50 MG MID” value ([20]; log10 of drug molar concentration causing 50% cell growth inhibition) was −5.34. For the same compound, the “Log GI50 MG MID” value ([20]; repeated test values) was −5.62, the “Log LC50 MG MID” value ([20]; repeated test values) was −4.39 and the “Log TGI MG MID” value ([20]; repeated test values) was −5.08. It also gave a GI50 ([21]; 48 h drug exposure, SRB) of 1.44 µM, a GI50 ([21]; repeat test values) of 1.5 µM and a GI50 ([22]; 48 h drug exposure, SRB) of 1.72 µM. For the same compound, the GI50 ([22]; repeat test values) was 2.03 µM.
